Measurements from patent US20160030416A1, “METHODS OF TREATING B2-BRADYKININ RECEPTOR MEDIATED ANGIOEDEMA” (SHIRE HUMAN GENETIC THERAPIES, INC., priority 2013, published 2016).
Read-outs that look alike come from different tables or passages of the source.

Legend:
[1] = molecular target: T1, μ (h) (MOP) (agonist site) (Homo sapiens, UniProt P35372); experiment: Off-target receptor binding: μ (MOP)
T1 construct: expressed in transfected cells; host or cells: CHO or HEK 293 (not assigned per receptor)
Description: (§1) To determine the affinity to the B2-bradykinin receptor, CFMQ was compared to a diverse set of receptors and reference agents in an in vitro assay using cells from rat heart, urinary bladder, cerebral cortex, as well as human recombinant cells (CHO and HEK 293) and other cell lines. Each assay included a ligand at a specific concentration (concentration ranging from 0.007-10 nM), in addition to a non-specific ligand (concentration ranging from […]) for incubation periods ranging from 15 minutes to 6 hours at 4°-37° C. The specific binding to the receptors was defined as the difference between the total binding and the nonspecific binding, determined in the presence of an excess of unlabeled CFMQ. The concentration causing a half-maximal inhibition of control specific binding (IC50 values) and inhibition constants (Ki) were determined, and each reference compound was within the accepted limits of the historic average (±0.5 log units).

[2] = molecular target: T2, A3 (h) (Homo sapiens, UniProt P0DMS8); experiment: Off-target receptor binding: A3
T2 construct: expressed in transfected cells; host or cells: CHO or HEK 293 (not assigned per receptor)
T2 sequence (P0DMS8 1-318): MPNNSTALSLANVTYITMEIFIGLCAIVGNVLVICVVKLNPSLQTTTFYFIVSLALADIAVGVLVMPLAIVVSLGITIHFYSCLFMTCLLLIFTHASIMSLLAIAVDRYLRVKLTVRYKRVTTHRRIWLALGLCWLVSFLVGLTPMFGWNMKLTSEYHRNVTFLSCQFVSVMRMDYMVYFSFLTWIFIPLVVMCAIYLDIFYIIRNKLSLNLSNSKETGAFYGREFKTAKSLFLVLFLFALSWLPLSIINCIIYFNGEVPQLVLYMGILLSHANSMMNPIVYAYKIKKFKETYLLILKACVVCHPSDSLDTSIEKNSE
Description: as §1

[3] = Pharmacokinetics, single oral gavage, CD-1 mice; format: in vivo, female CD-1 mice; conditions: female, CD-1, mouse, plasma
Description: CFMQ (HGT3711) was administered to fasted female CD-1 mice (n=18/dose group) by a single oral gavage at 100, 250 and 450 mg/kg in a dose volume of 5 mL/kg in a spray-dried dispersion formulation (discussed below). Blood samples were taken via cardiocentesis or abdominal vein prior to administration and at 10, 30, 60 (1 hr), 120 (2 hr), 240 (4 hr) and 480 (8 hr) minutes post dose. Plasma concentrations of CFMQ (HGT3711) were determined by LC-MS/MS (liquid chromatography mass spectrometry) and concentrations below the limit of quantitation (3 ng/mL) were assigned a value of zero for pharmacokinetic analysis. Nominal dosing concentrations were used in all calculations.

[4] = Plasma kinetics, intravenous, Sprague-Dawley rats; format: in vivo, female Sprague-Dawley rats
Description: CFMQ (HGT3711) was administered to fasted female Sprague-Dawley rats by a single intravenous injection at 1.0 mg/kg, formulated in 100% PEG200 (Table 2.6.5.X, Study 10SHIRUSP11). Blood samples were taken via a jugular vein cannula prior to administration and at 0.083 (5 min), 0.25 (15 min), 0.50 (30 min), 1, 2, 4 and 8 hours post dose. Plasma concentrations of CFMQ (HGT3711) were determined by LC-MS/MS and concentrations below the limit of quantitation (1 ng/mL) were assigned a value of zero for pharmacokinetic analysis. Nominal dosing concentrations were used in all calculations.

[5] = In vitro microsomal stability, human; format: in vitro ADME; conditions: Mix
Description: In vitro metabolic stability studies were performed to determine hepatic stability in vivo. CFMQ was incubated in liver microsomal preparations from mouse, rat, dog, mini-pig, and humans, as well as an additional study with monkey and human. CFMQ was incubated with human and animal liver microsomes at 0.3 mg/mL at 37° C. for 30 or 60 minutes. Additional reference compounds were incubated as controls. Following incubation, samples were analyzed by HPLC-MS/MS.

[6] = molecular target: T3, human B2-bradykinin receptor (Homo sapiens, UniProt P30411); experiment: [3H]bradykinin competition binding assay in HEK 293 cells; parameters: expressed in transfected cells; conditions: 2 nM [3H]bradykinin, 90-minute incubation
T3 sequence (P30411 1-391): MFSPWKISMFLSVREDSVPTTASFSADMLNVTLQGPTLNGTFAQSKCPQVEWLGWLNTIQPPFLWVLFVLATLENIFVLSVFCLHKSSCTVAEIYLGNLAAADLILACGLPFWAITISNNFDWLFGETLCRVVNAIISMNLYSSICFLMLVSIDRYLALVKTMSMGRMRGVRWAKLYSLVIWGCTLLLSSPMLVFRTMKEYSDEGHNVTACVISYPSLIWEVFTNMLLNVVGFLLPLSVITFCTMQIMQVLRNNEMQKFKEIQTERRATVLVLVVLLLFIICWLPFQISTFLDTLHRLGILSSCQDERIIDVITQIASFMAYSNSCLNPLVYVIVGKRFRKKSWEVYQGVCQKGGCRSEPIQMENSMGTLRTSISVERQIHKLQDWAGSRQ
Description: For determination of non-specific binding 1.25 μL of a 10 mM bradykinin (BK) solution was added to 248.8 μL incubation buffer (containing 2 nM [^3H]BK). […] Appropriate controls were prepared in the same method.
Human embryonic kidney (HEK) 293 cells stably express recombinant human B2-bradykinin receptors (10 pmol/mg protein) and were added to 96-well culture-trays and cultivated for 1-3 days, followed by incubation with 100 μL of each of the incubation buffers containing [^3H]BK. After a 90-minute incubation period and washing (4×PBS (phosphate buffered saline)) supernatants of the cell mixtures were transferred to scintillation vials and assayed for [^3H]BK in a beta-counter. Results of counts per minute (cpm) for non-specific binding were subtracted from the total cpm and were used for curve fit and IC50 calculation.

[7] = 100 mg/kg, read-out: Average Concentration of HGT3711
[8] = 250 mg/kg, read-out: Average Concentration of HGT3711
[9] = 450 mg/kg, read-out: Average Concentration of HGT3711
[10] = 450 mg/kg, n = 2, read-out: Average Concentration of HGT3711
[11] = female, Sprague-Dawley, rat, plasma, IV 1 mg/kg

T1 sequence (P35372 whole entry): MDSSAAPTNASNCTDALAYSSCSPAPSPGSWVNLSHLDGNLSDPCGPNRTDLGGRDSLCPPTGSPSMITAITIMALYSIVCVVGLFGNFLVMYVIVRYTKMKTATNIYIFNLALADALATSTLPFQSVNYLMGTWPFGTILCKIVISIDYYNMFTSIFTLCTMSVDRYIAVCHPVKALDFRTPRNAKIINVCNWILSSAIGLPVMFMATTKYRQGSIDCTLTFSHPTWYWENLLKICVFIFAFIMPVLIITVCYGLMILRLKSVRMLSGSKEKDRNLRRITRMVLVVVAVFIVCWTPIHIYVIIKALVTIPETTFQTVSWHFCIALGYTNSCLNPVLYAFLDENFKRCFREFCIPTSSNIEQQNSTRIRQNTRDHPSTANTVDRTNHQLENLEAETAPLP

IC50 [1]: 6.7 µM
Ki [1]: 2.7 µM
nH [1]: 1.0
inhibition at 10 µM ([1]; CFMQ at 10 μM): 54%
IC50 [2]: 7.6 µM
Ki [2]: 4.5 µM
nH [2]: 1.4
inhibition at 10 µM ([2]; CFMQ at 10 μM): 53%
AUC(0-inf) ([3]; 100 mg/kg): 10500 ng·h/mL
AUC(0-t) ([3]; 100 mg/kg): 10500 ng·h/mL
Cmax ([3]; 100 mg/kg): 5300 ng/mL
concentration at 10 min [3, 7]: 5300 ng/mL
concentration at 30 min [3, 7]: 4100 ng/mL
concentration at 60 min [3, 7]: 5170 ng/mL
concentration at 120 min [3, 7]: 2200 ng/mL
concentration at 240 min [3, 7]: 78 ng/mL
concentration at 480 min [3, 7]: 18 ng/mL
AUC(0-inf) ([3]; 250 mg/kg): 24500 ng·h/mL
AUC(0-t) ([3]; 250 mg/kg): 24400 ng·h/mL
Cmax ([3]; 250 mg/kg): 13300 ng/mL
concentration at 10 min [3, 8]: 6250 ng/mL
concentration at 30 min [3, 8]: 13300 ng/mL
concentration at 60 min [3, 8]: 10400 ng/mL
concentration at 120 min [3, 8]: 4570 ng/mL
concentration at 240 min [3, 8]: 854 ng/mL
concentration at 480 min [3, 8]: 45 ng/mL
AUC(0-inf) ([3]; 450 mg/kg): 40900 ng·h/mL
AUC(0-t) ([3]; 450 mg/kg): 40800 ng·h/mL
Cmax ([3]; 450 mg/kg): 15800 ng/mL
concentration at 10 min [3, 9]: 11600 ng/mL
concentration at 30 min [3, 9]: 14600 ng/mL
concentration at 60 min [3, 10]: 15800 ng/mL
concentration at 120 min [3, 10]: 6440 ng/mL
concentration at 240 min [3, 9]: 3370 ng/mL
concentration at 480 min [3, 9]: 88 ng/mL
clearance as % of liver blood flow in rat (3.3 L/hr/kg) ([4]; IV 1 mg/kg): approximately 30%
AUC(0-inf) [4, 11]: 1410 ng·h/mL
AUC(0-t) [4, 11]: 1150 ng·h/mL
C0 [4, 11]: 747 ng/mL
Tmax [4, 11]: 0 h
clearance [4, 11]: 15.8 mL/min/kg
half-life [4, 11]: 2.86 ± 2.54 h
concentration at 0 hr ([4]; female, Sprague-Dawley, rat, plasma, IV 1 mg/kg, 0 hr, read-out: Average Concentration of HGT3711): 0 ng/mL
concentration at 0.083 hr ([4]; female, Sprague-Dawley, rat, plasma, IV 1 mg/kg, 0.083 hr, read-out: Average Concentration of HGT3711): 597 ng/mL
concentration at 0.25 hr ([4]; female, Sprague-Dawley, rat, plasma, IV 1 mg/kg, 0.25 hr, read-out: Average Concentration of HGT3711): 401 ng/mL
concentration at 0.5 hr ([4]; female, Sprague-Dawley, rat, plasma, IV 1 mg/kg, 0.50 hr, read-out: Average Concentration of HGT3711): 324 ng/mL
concentration at 1 hr ([4]; female, Sprague-Dawley, rat, plasma, IV 1 mg/kg, 1.0 hr, read-out: Average Concentration of HGT3711): 248 ng/mL
concentration at 2 hr ([4]; female, Sprague-Dawley, rat, plasma, IV 1 mg/kg, 2.0 hr, read-out: Average Concentration of HGT3711): 160 ng/mL
concentration at 4 hr ([4]; female, Sprague-Dawley, rat, plasma, IV 1 mg/kg, 4.0 hr, read-out: Average Concentration of HGT3711): 113 ng/mL
concentration at 8 hr ([4]; female, Sprague-Dawley, rat, plasma, IV 1 mg/kg, 8.0 hr, read-out: Average Concentration of HGT3711): 36.9 ng/mL
Vd ([4]; female, Sprague-Dawley, rat, plasma, IV 1 mg/kg, read-out: Vss): 2.6 ± 1.1 L/kg
% Remaining [30 minutes] ([5]; 30 minutes): 70-91%
% Remaining [60 minutes] ([5]; 60 minutes): 50-85%
IC50 [6]: 0.0033 µM
SMILES: Cc1cc(Cl)c(COc2cccc3c(-n4cc(F)cn4)cc(C)nc23)c(Cn2cccc(C#N)c2=O)n1 [CFMQ, 1-((4-Chloro-3-(((4-(4-fluoro-1H-pyrazol-1-yl)-2-methylquinolin-8-yl)oxy)methyl)-6-methylpyridin-2-yl)methyl)-2-oxo-1,2-dihydropyridine-3-carbonitrile]
adverse reactions ([4]; IV 1.0 mg/kg, rats): no adverse reactions observed
